Results on four compounds are retold here after US11992497B2 (priority 2021, dated 2024).

SMILES strings stand for the structures. Where two headings read alike, the source gives them in different places. A value given as a limit tells only on which side of the number the result lay.

One series deals with T1, UGT2B15 (Homo sapiens, UniProt P54855).
T1 sequence (P54855 24-530): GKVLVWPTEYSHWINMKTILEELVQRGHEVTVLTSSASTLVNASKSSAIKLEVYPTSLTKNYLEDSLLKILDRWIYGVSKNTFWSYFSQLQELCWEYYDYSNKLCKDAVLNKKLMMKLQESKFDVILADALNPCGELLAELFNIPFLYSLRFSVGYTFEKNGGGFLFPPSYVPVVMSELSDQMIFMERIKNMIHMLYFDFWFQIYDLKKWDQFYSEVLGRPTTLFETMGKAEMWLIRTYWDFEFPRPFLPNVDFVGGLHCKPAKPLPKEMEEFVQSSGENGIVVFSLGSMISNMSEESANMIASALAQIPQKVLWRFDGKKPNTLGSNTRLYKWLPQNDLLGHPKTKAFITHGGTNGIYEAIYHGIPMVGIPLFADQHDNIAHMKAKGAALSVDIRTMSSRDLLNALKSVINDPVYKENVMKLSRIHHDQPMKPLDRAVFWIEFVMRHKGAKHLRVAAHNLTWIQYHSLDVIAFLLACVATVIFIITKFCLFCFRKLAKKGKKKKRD
As to the kind of experiment: UGT reaction phenotyping, recombinant Supersomes. The conditions noted are these: recombinant enzyme, pH 7.4. Here is the method:
(§1) Experimental Summary: UGT Reaction Phenotyping (7 Isoforms).
(§2) Experimental Procedure: cDNA expressed human UGT enzyme preparations (Supersomes) supplied by BD Biosciences were obtained and stored at −80° C. prior to use. The specific isoforms were chosen by the performing laboratory based on published guidelines. They are considered the clinically relevant of the UGT isoforms (E. Kasteel et al. Human variability in isoform-specific UDP-glucuronosyltransferases: markers of acute and chronic exposure, polymorphisms and uncertainty factors. Arch Toxicol. 2020; 94(8): 2637-2661)
(§3) Supersomes in 0.1 M Tris buffer pH 7.4, alamethicin (44.6 μg/mL) and test compound (final concentration of 5 μM; final DMSO concentration ≤0.1%) were pre-incubated at 37° C. prior to the addition of UDGPA (final concentration 2 mM) to initiate the reaction. Incubations were also performed using control Supersomes (no UGT enzymes present) to reveal any non-enzymatic degradation. Compounds known to be metabolized specifically by each UGT isoform were used as control compounds (7-hydroxy-4-trifluoromethylcoumarin, all but UGT1A4, or trifluoperazine for UGT1A4).
(§4) CBG or Compound 1 were incubated in duplicate for 0, 10, 20, 40 and 60 min with each isoform. The reactions were stopped by the addition of methanol containing an analytical internal standard at the time points specified in the table above. Stopped reactions were kept on ice for at least ten minutes and the samples were centrifuged to remove precipitated protein. Supernatants were analyzed by LC-MS/MS methodology developed by the performing laboratory to quantitate the parent remaining.
(§5) The change in CBG concentration were used to calculate the Half life (t1/2 in min) and the intrinsic clearance ([…]) as shown in the following table (S. C, Khojasteh et.al., Drug Metabolism and Pharmacokinetics Quick Guide, Springer, NY, 2011), Intrinsic Clearance (CIint) is a measure of the ability of hepatocytes to eliminate drug irrespective other factors such as blood flow or protein binding. The calculations were the same as those used in Example 3A.

Another series concerns the target T2, UGT1A6 (Homo sapiens, UniProt P19224).
T2 sequence (P19224 27-532): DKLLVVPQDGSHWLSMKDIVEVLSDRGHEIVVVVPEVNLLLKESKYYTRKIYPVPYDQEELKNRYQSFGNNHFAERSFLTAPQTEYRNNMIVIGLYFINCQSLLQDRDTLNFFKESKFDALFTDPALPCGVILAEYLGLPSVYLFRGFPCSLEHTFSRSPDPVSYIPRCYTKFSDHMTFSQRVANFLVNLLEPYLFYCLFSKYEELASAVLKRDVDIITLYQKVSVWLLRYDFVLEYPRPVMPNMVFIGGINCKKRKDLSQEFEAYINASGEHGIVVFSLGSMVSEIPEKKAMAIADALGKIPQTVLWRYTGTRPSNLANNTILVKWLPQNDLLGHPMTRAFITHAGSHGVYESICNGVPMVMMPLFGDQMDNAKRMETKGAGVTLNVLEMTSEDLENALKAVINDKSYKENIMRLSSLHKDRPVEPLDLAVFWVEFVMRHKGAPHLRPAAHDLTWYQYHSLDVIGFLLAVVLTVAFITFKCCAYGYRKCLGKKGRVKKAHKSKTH
Kind of series: UGT reaction phenotyping, recombinant Supersomes. The conditions noted are these: recombinant enzyme, pH 7.4. Here is the method: as §1, §2, §3, §4, §5

A further series deals with SW620. Kind of series: GI50 by clonogenic assay. The series is classed as cell-based. The conditions noted are these: Homo sapiens. The method, then:
(§6) For colonogenic assay, the compounds were tested at 4 concentrations for 1 week or 2 weeks on 4 colon cancer cell lines. The compounds, concentrations, colon cancer cell line panel and end time point tested are the following: • CBG: 0 μM, 10 μM, 20 μM, 40 μM, and 80 μM. • Compound 1: 0 μM, 5 μM, 7.5 μM, 10 μM, and 20 μM. • Compound 2: 0 μM, 10 μM, 20 μM, 40 μM, and 80 μM. • Colon cancer cell line panel and end time point: SW620, HCT15, HCT116, 1 week; HT29, 2 weeks
(§7) Four colon cancer cell lines of SW620, HCT15, HT29, and HCT116 were included in the colon cancer cell line panel.
(§8) CBG, compound 1 and compound 2 were dissolved in DMSO at a concentration of 10 mM and stored at −20° C.
(§9) Evaluation of DM compounds treatment-induced growth inhibition was performed to determine the GI50 of four colon cancer cell lines with MTS assay or clonogenic assay. Each experiment was repeated in triplicate. In GraphPad Prism, data were log-transformed and fit with a nonlinear curve to calculate the GI50.
(§10) Clonogenic assay. cells were plated at 6 well plates at a density of 2,500 cells per well. After 24 hours, cells were treated with DM compounds at increasing concentrations or DMSO vehicle and incubated for 1 week or 2 weeks. Cells were then fixed and stained with 1% crystal violet (Sigma-Aldrich) solution. Quantification was performed using ImageJ. Each experiment was repeated in triplicate. In GraphPad Prism, data were log-transformed and fit with a nonlinear curve to calculate the GI50.

A further series deals with HT29. As to the kind of experiment: GI50 by clonogenic assay. The series is classed as cell-based. The conditions noted are these: Homo sapiens. The method, then:
as §6, §7, §8, §9, §10

The test system of a further series is HCT15. As to the kind of experiment: GI50 by clonogenic assay. Format: cell-based. The conditions noted are these: Homo sapiens. The method, then: as §6, §7, §8, §9, §10
Setting [1] is: SW-620, 168 h, SW620 cells, 1 week, read-out: GI50 (clonogenic assay).
[2] abbreviates: SW-620, clonogenic assay, SW620, average of N1-N3, read-out: GI50 AVG.
The mark [3] stands for this setting: SW-620, clonogenic assay, SW620, replicate N1, read-out: GI50 N1.
Where [4] appears, read: SW-620, clonogenic assay, SW620, replicate N2, read-out: GI50 N2.
Setting [5] is: SW-620, clonogenic assay, SW620, replicate N3, read-out: GI50 N3.
The mark [6] stands for this setting: HT-29, 336 h, HT29 cells, 2 weeks, read-out: GI50 (clonogenic assay).
Setting [7] is: HT-29, clonogenic assay, HT29, average of N1-N3, read-out: GI50 AVG.
Setting [8] is: HT-29, clonogenic assay, HT29, replicate N1, read-out: GI50 N1.
The mark [9] stands for this setting: HT-29, clonogenic assay, HT29, replicate N2, read-out: GI50 N2.
[10] abbreviates: HT-29, clonogenic assay, HT29, replicate N3, read-out: GI50 N3.
Setting [11] is: HCT-15, 168 h, HCT15 cells, 1 week, read-out: GI50 (clonogenic assay).
The mark [12] stands for this setting: HCT-15, clonogenic assay, HCT15, average of N1-N3, read-out: GI50 AVG.
The mark [13] stands for this setting: HCT-15, clonogenic assay, HCT15, replicate N1, read-out: GI50 N1.
[14] abbreviates: HCT-15, clonogenic assay, HCT15, replicate N2, read-out: GI50 N2.
Setting [15] is: HCT-15, clonogenic assay, HCT15, replicate N3, read-out: GI50 N3.

As for `CCCCCc1cc(O)c(C/C=C(\C)CCC=C(C)C)c(OC)c1` [Compound 1, (E)-2-(3,7-dimethylocta-2,6-dien-1-yl)-3-methoxy-5-pentylphenol], the half-life at 1 µM is 57.2 min at UGT2B15 and over 240 min on UGT1A6. For the same compound, the microsomal CLint at 1 µM at UGT2B15 was 24.2 µL/min/mg; at UGT1A6, under 2.89 µL/min/mg. In addition, the GI50 in the series on SW620 (setting [1]) came to 5.35 ± 1.11 µM; in the series with SW620 (setting [2]), 5.35 µM; with SW620 (setting [3]) it was 5.76 µM; in the series on SW620 (setting [4]), 4.09 µM; in the series with SW620 (setting [5]), 6.2 µM; in the series on HT29 (setting [6]), 2.95 ± 1.41 µM. Also, the GI50 turned out to be 2.95 µM in the series with HT29 (setting [7]); 1.33 µM in the series with HT29 (setting [8]); 3.87 µM with HT29 (setting [9]); 3.66 µM in the series on HT29 (setting [10]); 5.03 ± 2.16 µM in the series with HCT15 (setting [11]); 5.03 µM with HCT15 (setting [12]). Moreover, the GI50 in the series with HCT15 (setting [13]) is 3.64 µM; in the series on HCT15 (setting [14]), 7.52 µM; in the series on HCT15 (setting [15]), 3.94 µM.
In the case of `O=c1cc(C(F)(F)F)c2ccc(O)cc2o1` [7-OH4trifluoromethylcoumarin, 7-hydroxy-4-trifluoromethylcoumarin], at UGT2B15, the half-life at 1 µM came to 24.9 min and the microsomal CLint at 1 µM was 55.8 µL/min/mg. Moreover, at UGT1A6, the half-life at 1 µM came out at 6.41 min and the microsomal CLint at 1 µM amounted to 216 µL/min/mg.
As to `CCCCCc1cc(O)c(C/C=C(\C)CCC=C(C)C)c(O)c1` [CBG, cannabigerol], the half-life at 1 µM was found to be 47.6 min on UGT2B15 and 95 min on UGT1A6. The microsomal CLint at 1 µM at UGT2B15 stood at 29.1 µL/min/mg; at UGT1A6 it was 14.6 µL/min/mg. For the same compound, the GI50 amounted to 20.6 ± 1.95 µM in the series with SW620 (setting [1]); 20.6 µM in the series on SW620 (setting [2]); 18.9 µM in the series with SW620 (setting [3]); 22.7 µM with SW620 (setting [4]); 20.1 µM in the series with SW620 (setting [5]); 9.09 ± 1.71 µM in the series on HT29 (setting [6]). Moreover, the GI50 in the series with HT29 (setting [7]) was found to be 9.09 µM; with HT29 (setting [8]) it was 8.11 µM; with HT29 (setting [9]), 8.09 µM; with HT29 (setting [10]), 11.1 µM; in the series on HCT15 (setting [11]) it was 17.4 ± 2.89 µM; in the series on HCT15 (setting [12]), 17.4 µM. For the same compound, the GI50 with HCT15 (setting [13]) was determined as 15.6 µM; in the series on HCT15 (setting [14]), 20.7 µM; in the series with HCT15 (setting [15]), 15.9 µM.
Take `CCCCCc1cc(OC)c(C/C=C(\C)CCC=C(C)C)c(OC)c1` [Compound 2, (E)-2-(3,7-dimethylocta-2,6-dien-1-yl)-1,3-dimethoxy-5-pentylbenzene]: the GI50 in the series on SW620 (setting [1]) came out at 41.7 ± 5.9 µM; with SW620 (setting [2]), 41.7 µM; with SW620 (setting [3]), 47.8 µM; in the series with SW620 (setting [4]) it was 41.2 µM; in the series on SW620 (setting [5]), 36 µM; in the series with HT29 (setting [6]), 34.5 ± 14.4 µM. The concentration for 50% growth inhibition (GI50) in the series with HT29 (setting [7]) is 34.5 µM; in the series with HT29 (setting [8]), 51.1 µM; with HT29 (setting [9]), 25 µM; in the series with HT29 (setting [10]), 27.3 µM; in the series on HCT15 (setting [11]) it was 35.9 ± 8.95 µM; in the series on HCT15 (setting [12]) it was 35.9 µM. Further, the values for the GI50 in the series on HCT15 (setting [13]), in the series on HCT15 (setting [14]) and with HCT15 (setting [15]) were 46.2 µM, 30.5 µM and 31 µM, respectively.

For orientation: half-life means the time in which the quantity being followed falls by half. Broadly, the microsomal CLint is the rate of metabolic loss divided by the concentration. In general, GI50 refers to the concentration that inhibits growth by half.
